Reference: patent publication US10658848B2, “Materials for use with aqueous redox flow batteries and related methods and systems” (Massachusetts Institute of Technology, priority 2014, dated 2020)
Marks after values point to notes of the source that are not given here.

Experiment: Qualitative cyclic voltammetry of quinoxaline electrolytes
Assay type: physicochemical
Procedure: Quinoxaline electrochemical behavior was characterized in a number of aqueous electrolytes. […] All electrochemical measurements presented in this paper were performed using a Biologic VSP-300 potentiostat. Glassy carbon electrodes were used as working electrodes in voltammetry experiments and were polished using 0.05 μm alumina suspension before performing a new set of measurements. Solution resistances were measured prior to electrochemical experiments to be 5Ω. Due to small peak currents during CV (less than 1 mA), the maximum estimated iR drop was 5 mV. During qualitative CV experiments, a 75% solution resistance compensation (iR correction) was applied during the experiment to ensure high quality data in untested systems. Quantitative CV techniques were carried with no iR correction as the small potential offset was unlikely to affect experimental results. Additionally, no iR correction was applied during RDV experiments because analyses only considered the limiting RDV current, which is unaffected by ohmic losses. All potentials given herein are presented versus the reversible hydrogen electrode (RHE), unless otherwise stated. Experimental potentials were determined versus a calibrated Ag/AgCl reference electrode and converted to potentials versus RHE using the […] equation and the pH of the solution, measured with a pH meter. All currents utilized in quantitative calculations were background corrected, assuming the background current was composed of non-faradaic, hydrogen evolution reaction and oxygen reduction reaction currents. Qualitative CV experiments were carried out in a three-electrode cell with a 0.3 cm diameter glassy carbon electrode (0.071 cm^2, CH Instruments), a platinum (Pt) wire counter electrode (CH Instruments) and a Ag/AgCl (3 M NaCl, BASi Inc.) reference electrode. […] Three-electrode cells were filled with 10 mL of solution, and the solution was bubbled with argon at a rate of 50 mL/min for 10 min prior to experiments. The argon bubbling tube was then adjusted such that it provided a blanket of argon gas over the surface of the solution. Then, ten cycles of CV were recorded at a scan rate of 100 mV/s. […] A linear slope to the front of an anodic peak (ma) and cathodic peak (mc) was estimated as a rough indicator of the overall reaction rate of either the forward or backward reaction, combining effects of both reaction kinetics and mass-transport. Achieving a slope ratio (ma/mc) of one, indicates an equally fast forward and backward overall reaction rate.

[1] = 0.45M Li2SO4/0.1M LiOH, pH 12.2
[2] = 0.495M K2SO4/0.01M KOH, pH 11.8
[3] = 0.495M Li2SO4/0.01M LiOH, pH 12.0
[4] = 0.5M K2SO4, pH 8.9, considerable degradation
[5] = 0.9M NaC2H3O2/0.1M NaOH, pH 12.7
[6] = 0.99M LiNO3/0.01M LiOH, pH 11.3
[7] = 0.99M NaC2H3O2/0.01M NaOH, pH 11.8
[8] = 0.99M NaHCO3/0.01M NaOH, pH 8.7
[9] = 0.99M NaNO3/0.01M NaOH, pH 11.6
[10] = 1M KNO3, pH 7.2, significant hydrogen evolution reaction current
[11] = 1M LiCl, pH 3.8, considerable degradation
[12] = 1M LiNO3, pH 6.0, significant hydrogen evolution reaction current
[13] = 1M NaHCO3, pH 8.7, considerable degradation

SMILES: c1ccc2nccnc2c1 [quinoxaline]
- E° vs. RHE (0.45M K2SO4/0.1M KOH, pH 12.8): −0.50 V
- ipa, 10/ipa, 2 (0.45M K2SO4/0.1M KOH, pH 12.8): 0.99
- ipc, 10/ipc, 2 (0.45M K2SO4/0.1M KOH, pH 12.8): 0.97
- ma/mc (0.45M K2SO4/0.1M KOH, pH 12.8): 0.51
- ΔEpp, 10/ΔEpp, 2 (0.45M K2SO4/0.1M KOH, pH 12.8): 1.05
- E° vs. RHE [1]: −0.52 V
- ipa, 10/ipa, 2 [1]: 1.00
- ipc, 10/ipc, 2 [1]: 0.99
- ma/mc [1]: 0.46
- ΔEpp, 10/ΔEpp, 2 [1]: 1.02
- E° vs. RHE [2]: −0.51 V
- ipa, 10/ipa, 2 [2]: 0.98
- ipc, 10/ipc, 2 [2]: 0.95
- ma/mc [2]: 0.64
- ΔEpp, 10/ΔEpp, 2 [2]: 1.08
- E° vs. RHE [3]: −0.52 V
- ipa, 10/ipa, 2 [3]: 0.96
- ipc, 10/ipc, 2 [3]: 0.95
- ma/mc [3]: 0.55
- ΔEpp, 10/ΔEpp, 2 [3]: 1.06
- E° vs. RHE [4]: −0.90 ^‡ V
- ipc, 10/ipc, 2 [4]: 0.45 ^‡
- ma/mc [4]: 0.91 ^‡
- ΔEpp, 10/ΔEpp, 2 [4]: 2.16 ^‡
- E° vs. RHE (0.5M Li2SO4, pH 6.6, considerable degradation): −0.81 ^‡ V
- E° vs. RHE (0.9M KCl/0.1M KOH, pH 12.8): −0.45 V
- ipa, 10/ipa, 2 (0.9M KCl/0.1M KOH, pH 12.8): 0.99
- ipc, 10/ipc, 2 (0.9M KCl/0.1M KOH, pH 12.8): 0.96
- ma/mc (0.9M KCl/0.1M KOH, pH 12.8): 0.46
- ΔEpp, 10/ΔEpp, 2 (0.9M KCl/0.1M KOH, pH 12.8): 1.05
- E° vs. RHE (0.9M KNO3/0.1M KOH, pH 12.8): −0.50 V
- ipa, 10/ipa, 2 (0.9M KNO3/0.1M KOH, pH 12.8): 0.99
- ipc, 10/ipc, 2 (0.9M KNO3/0.1M KOH, pH 12.8): 0.98
- ma/mc (0.9M KNO3/0.1M KOH, pH 12.8): 0.53
- ΔEpp, 10/ΔEpp, 2 (0.9M KNO3/0.1M KOH, pH 12.8): 1.03
- E° vs. RHE (0.9M LiCl/0.1M LiOH, pH 12.1): −0.53 V
- ipa, 10/ipa, 2 (0.9M LiCl/0.1M LiOH, pH 12.1): 1.00
- ipc, 10/ipc, 2 (0.9M LiCl/0.1M LiOH, pH 12.1): 0.99
- ma/mc (0.9M LiCl/0.1M LiOH, pH 12.1): 0.51
- ΔEpp, 10/ΔEpp, 2 (0.9M LiCl/0.1M LiOH, pH 12.1): 1.04
- E° vs. RHE (0.9M LiNO3/0.1M LiOH, pH 12.1): −0.48 V
- ipa, 10/ipa, 2 (0.9M LiNO3/0.1M LiOH, pH 12.1): 0.99
- ipc, 10/ipc, 2 (0.9M LiNO3/0.1M LiOH, pH 12.1): 0.95
- ma/mc (0.9M LiNO3/0.1M LiOH, pH 12.1): 0.51
- ΔEpp, 10/ΔEpp, 2 (0.9M LiNO3/0.1M LiOH, pH 12.1): 1.10
- E° vs. RHE [5]: −0.51 V
- ipa, 10/ipa, 2 [5]: 1.00
- ipc, 10/ipc, 2 [5]: 0.97
- ma/mc [5]: 0.46
- ΔEpp, 10/ΔEpp, 2 [5]: 1.04
- E° vs. RHE (0.9M NaHCO3/0.1M NaOH, pH 9.1): −0.53 V
- ipa, 10/ipa, 2 (0.9M NaHCO3/0.1M NaOH, pH 9.1): 0.82
- ipc, 10/ipc, 2 (0.9M NaHCO3/0.1M NaOH, pH 9.1): 0.78
- ma/mc (0.9M NaHCO3/0.1M NaOH, pH 9.1): 1.63
- ΔEpp, 10/ΔEpp, 2 (0.9M NaHCO3/0.1M NaOH, pH 9.1): 1.56
- E° vs. RHE (0.9M NaNO3/0.1M NaOH, pH 12.5): −0.52 V
- ipa, 10/ipa, 2 (0.9M NaNO3/0.1M NaOH, pH 12.5): 0.98
- ipc, 10/ipc, 2 (0.9M NaNO3/0.1M NaOH, pH 12.5): 0.98
- ma/mc (0.9M NaNO3/0.1M NaOH, pH 12.5): 0.50
- ΔEpp, 10/ΔEpp, 2 (0.9M NaNO3/0.1M NaOH, pH 12.5): 1.07
- ip,a (0.99 M KCl/0.01 M KOH, across all cycles): 0.12 mA
- E° vs. RHE (0.99M KCl/0.01M KOH, pH 11.8): −0.48 V
- ipa, 10/ipa, 2 (0.99M KCl/0.01M KOH, pH 11.8): 1.00
- ipc, 10/ipc, 2 (0.99M KCl/0.01M KOH, pH 11.8): 0.97
- ma/mc (0.99M KCl/0.01M KOH, pH 11.8): 0.59
- ΔEpp, 10/ΔEpp, 2 (0.99M KCl/0.01M KOH, pH 11.8): 1.02
- E° vs. RHE (0.99M KNO3/0.01M KOH, pH 11.7): −0.52 V
- ipa, 10/ipa, 2 (0.99M KNO3/0.01M KOH, pH 11.7): 1.00
- ipc, 10/ipc, 2 (0.99M KNO3/0.01M KOH, pH 11.7): 0.97
- ma/mc (0.99M KNO3/0.01M KOH, pH 11.7): 0.64
- ΔEpp, 10/ΔEpp, 2 (0.99M KNO3/0.01M KOH, pH 11.7): 1.01
- E° vs. RHE (0.99M LiCl/0.01M LiOH, pH 11.4): −0.52 V
- ipa, 10/ipa, 2 (0.99M LiCl/0.01M LiOH, pH 11.4): 0.99
- ipc, 10/ipc, 2 (0.99M LiCl/0.01M LiOH, pH 11.4): 0.96
- ma/mc (0.99M LiCl/0.01M LiOH, pH 11.4): 0.63
- ΔEpp, 10/ΔEpp, 2 (0.99M LiCl/0.01M LiOH, pH 11.4): 1.05
- E° vs. RHE [6]: −0.47 V
- ipa, 10/ipa, 2 [6]: 0.98
- ipc, 10/ipc, 2 [6]: 0.95
- ma/mc [6]: 0.67
- ΔEpp, 10/ΔEpp, 2 [6]: 1.08
- E° vs. RHE [7]: −0.52 V
- ipa, 10/ipa, 2 [7]: 1.01
- ipc, 10/ipc, 2 [7]: 0.97
- ma/mc [7]: 0.58
- ΔEpp, 10/ΔEpp, 2 [7]: 1.06
- E° vs. RHE [8]: −0.53 V
- ipa, 10/ipa, 2 [8]: 0.06
- ipc, 10/ipc, 2 [8]: 0.50
- ma/mc [8]: 1.61
- ΔEpp, 10/ΔEpp, 2 [8]: 2.90
- E° vs. RHE [9]: −0.52 V
- ipa, 10/ipa, 2 [9]: 1.00
- ipc, 10/ipc, 2 [9]: 0.96
- ma/mc [9]: 0.61
- ΔEpp, 10/ΔEpp, 2 [9]: 1.04
- ip,a (1 M KCl, cycle 2): 0.11 mA
- ip,a (1 M KCl, cycle 10): 0.06 mA
- E° vs. RHE (1M KCl, pH 5.4): −0.80 V
- ipa, 10/ipa, 2 (1M KCl, pH 5.4): 0.57
- ipc, 10/ipc, 2 (1M KCl, pH 5.4): 0.56
- ma/mc (1M KCl, pH 5.4): 0.75
- ΔEpp, 10/ΔEpp, 2 (1M KCl, pH 5.4): 1.85
- E° vs. RHE [10]: −0.76 ^† V
- ipa, 10/ipa, 2 [10]: 0.91 ^†
- ipc, 10/ipc, 2 [10]: 1.01 ^†
- ma/mc [10]: 1.51 ^†
- ΔEpp, 10/ΔEpp, 2 [10]: 1.04 ^†
- peak separation (1 M KOH, 1 M NaOH, or 1 M LiOH): ~150 mV
- E° vs. RHE (1M KOH, pH 13.7): −0.48 V
- ipa, 10/ipa, 2 (1M KOH, pH 13.7): 0.98
- ipc, 10/ipc, 2 (1M KOH, pH 13.7): 0.97
- ma/mc (1M KOH, pH 13.7): 0.42
- ΔEpp, 10/ΔEpp, 2 (1M KOH, pH 13.7): 1.04
- E° vs. RHE [11]: −0.94 ^‡ V
- ipc, 10/ipc, 2 [11]: 0.08 ^‡
- ma/mc [11]: 0.96 ^‡
- ΔEpp, 10/ΔEpp, 2 [11]: 2.95 ^‡
- E° vs. RHE [12]: −0.75 ^† V
- ipa, 10/ipa, 2 [12]: 0.80 ^†
- ipc, 10/ipc, 2 [12]: 0.91 ^†
- ma/mc [12]: 1.94 ^†
- ΔEpp, 10/ΔEpp, 2 [12]: 1.11 ^†
- E° vs. RHE (1M LiOH, pH 12.7): −0.55 V
- ipa, 10/ipa, 2 (1M LiOH, pH 12.7): 0.98
- ipc, 10/ipc, 2 (1M LiOH, pH 12.7): 0.96
- ma/mc (1M LiOH, pH 12.7): 0.45
- ΔEpp, 10/ΔEpp, 2 (1M LiOH, pH 12.7): 1.00
- E° vs. RHE (1M NaC2H3O2, pH 8.6, two distinct reduction and oxidation peaks): −0.68 * V
- E° vs. RHE [13]: −0.53 ^‡ V
- ma/mc [13]: 1.51 ^‡
- E° vs. RHE (1M NaNO3, pH 6.8): −0.77 V
- ipa, 10/ipa, 2 (1M NaNO3, pH 6.8): 0.12
- ipc, 10/ipc, 2 (1M NaNO3, pH 6.8): 0.46
- ma/mc (1M NaNO3, pH 6.8): 0.82
- ΔEpp, 10/ΔEpp, 2 (1M NaNO3, pH 6.8): 1.78
- E° vs. RHE (1M NaOH, pH 13.8): −0.48 V
- ipa, 10/ipa, 2 (1M NaOH, pH 13.8): 0.99
- ipc, 10/ipc, 2 (1M NaOH, pH 13.8): 0.98
- ma/mc (1M NaOH, pH 13.8): 0.46
- ΔEpp, 10/ΔEpp, 2 (1M NaOH, pH 13.8): 1.01
- peak separation (KCl electrolyte with 0.01 M KOH, cycle 2): 230 mV
- peak separation (KCl electrolyte with 0.1 M KOH, cycle 2): 200 mV
- ratio of charge transferred between the cathodic and anodic scans (all electrolytes with pH≥11.4, within a particular CV cycle): exceeded 0.9
- redox potential E° vs. RHE (cases where quinoxaline exhibited stable performance over multiple CV cycles): ≈ −0.5 V
- redox potential E° vs. RHE (electrolytes where degradation of quinoxaline was observed, not indicators of the actual redox potential): ≤ −0.75 V
- peak separation (sulfate and chloride anions, at 0.01 M OH^−): < 220 mV
- peak separation (sulfate and chloride anions, at 0.1 M OH^−): < 200 mV
